{"source": "ChEMBL document CHEMBL1201862", "about": "“PubChem BioAssay data set” (2004)", "key": {"[1]": {"biological_target": "T1, Peroxisome proliferator-activated receptor gamma (Homo sapiens, UniProt P37231)", "T1 sequence (P37231 whole entry)": "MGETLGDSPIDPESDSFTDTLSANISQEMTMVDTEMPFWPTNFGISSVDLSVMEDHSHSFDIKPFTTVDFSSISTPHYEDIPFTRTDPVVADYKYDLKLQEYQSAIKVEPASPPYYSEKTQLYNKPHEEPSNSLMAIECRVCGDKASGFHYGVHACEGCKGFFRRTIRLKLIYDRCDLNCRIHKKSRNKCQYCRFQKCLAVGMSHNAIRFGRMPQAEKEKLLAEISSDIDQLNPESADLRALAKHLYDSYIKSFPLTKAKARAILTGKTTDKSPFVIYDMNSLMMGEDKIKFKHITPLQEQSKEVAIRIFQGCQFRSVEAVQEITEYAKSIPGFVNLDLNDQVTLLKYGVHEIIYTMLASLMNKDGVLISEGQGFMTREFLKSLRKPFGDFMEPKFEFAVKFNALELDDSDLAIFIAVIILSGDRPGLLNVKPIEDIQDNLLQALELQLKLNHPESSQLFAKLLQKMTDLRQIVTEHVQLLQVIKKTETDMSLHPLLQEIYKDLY", "assay": "competitive ligand displacement at PPARg – biochemical, TR-FRET, LanthaScreen, PPARg partial agonist project, dose response (AID 504446)"}, "[2]": {"biological_target": "T1, Peroxisome proliferator-activated receptor gamma", "assay": "PPARg transcriptional activation, reporter cells – cell-based, luminescence, assay provider, dose response (AID 504447)", "format": "functional"}, "[3]": {"biological_target": "Peroxisome proliferator-activated receptor alpha (Homo sapiens, UniProt Q07869)", "sequence (Q07869 whole entry)": "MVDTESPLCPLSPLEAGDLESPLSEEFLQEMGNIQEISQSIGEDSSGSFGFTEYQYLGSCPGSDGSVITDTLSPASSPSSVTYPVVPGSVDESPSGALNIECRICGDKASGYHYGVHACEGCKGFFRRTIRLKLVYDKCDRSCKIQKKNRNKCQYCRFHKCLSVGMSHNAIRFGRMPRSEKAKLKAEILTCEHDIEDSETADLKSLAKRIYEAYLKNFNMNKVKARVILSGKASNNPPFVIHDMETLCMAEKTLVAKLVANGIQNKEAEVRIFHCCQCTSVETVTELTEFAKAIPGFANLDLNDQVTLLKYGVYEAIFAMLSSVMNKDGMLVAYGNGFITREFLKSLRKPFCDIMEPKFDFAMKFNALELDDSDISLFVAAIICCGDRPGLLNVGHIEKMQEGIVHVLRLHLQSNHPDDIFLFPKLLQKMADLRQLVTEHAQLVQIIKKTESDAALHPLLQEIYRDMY", "assay": "Late stage assay provider counterscreen for partial agonists of the peroxisome proliferator-activated receptor gamma (PPARg): Luminescence-based cell-based dose response assay for partial agonists of the peroxisome proliferator-activated receptor alpha (PPARA). [Related pubchem assays (depositor defined):AID1051, AID1300, AID1319, AID1679, AID1808, AID504446, AID504447, AID504452, AID504453, AID631]", "format": "functional"}, "[4]": {"biological_target": "T2, Replicative DNA helicase DnaB (Mycobacterium tuberculosis, UniProt P9WMR3)", "T2 sequence (P9WMR3 whole entry)": "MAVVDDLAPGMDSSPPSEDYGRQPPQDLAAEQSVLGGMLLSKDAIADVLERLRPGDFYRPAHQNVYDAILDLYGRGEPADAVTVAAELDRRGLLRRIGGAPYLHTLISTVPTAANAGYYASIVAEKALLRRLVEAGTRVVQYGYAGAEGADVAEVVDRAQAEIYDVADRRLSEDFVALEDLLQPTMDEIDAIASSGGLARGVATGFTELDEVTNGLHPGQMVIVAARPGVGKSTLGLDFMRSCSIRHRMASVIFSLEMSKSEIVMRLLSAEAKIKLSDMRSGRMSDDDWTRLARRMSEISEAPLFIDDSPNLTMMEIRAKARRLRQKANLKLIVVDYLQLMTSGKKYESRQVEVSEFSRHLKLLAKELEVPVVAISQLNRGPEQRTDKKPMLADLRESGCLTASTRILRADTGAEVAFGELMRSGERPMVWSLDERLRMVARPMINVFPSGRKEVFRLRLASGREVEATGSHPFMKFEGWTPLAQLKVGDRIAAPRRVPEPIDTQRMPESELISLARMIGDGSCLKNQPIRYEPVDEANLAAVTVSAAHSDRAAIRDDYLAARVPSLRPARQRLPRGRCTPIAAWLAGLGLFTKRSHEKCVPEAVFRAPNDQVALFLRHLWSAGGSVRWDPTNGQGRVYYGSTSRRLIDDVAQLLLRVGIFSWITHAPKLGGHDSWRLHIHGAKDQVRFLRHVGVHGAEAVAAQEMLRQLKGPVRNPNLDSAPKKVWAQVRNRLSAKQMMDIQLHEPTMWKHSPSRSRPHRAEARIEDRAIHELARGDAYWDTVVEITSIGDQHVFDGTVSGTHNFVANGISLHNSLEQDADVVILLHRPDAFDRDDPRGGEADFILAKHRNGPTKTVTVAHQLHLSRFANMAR", "assay": "DnaB intein splicing inhibitors, dose response, biochemical, cell-free fluorescence (AID 449749)", "format": "functional"}, "Coagulation factor XII": {"biological_target": "T3, Coagulation factor XII (Homo sapiens, UniProt P00748)", "T3 sequence (P00748 whole entry)": "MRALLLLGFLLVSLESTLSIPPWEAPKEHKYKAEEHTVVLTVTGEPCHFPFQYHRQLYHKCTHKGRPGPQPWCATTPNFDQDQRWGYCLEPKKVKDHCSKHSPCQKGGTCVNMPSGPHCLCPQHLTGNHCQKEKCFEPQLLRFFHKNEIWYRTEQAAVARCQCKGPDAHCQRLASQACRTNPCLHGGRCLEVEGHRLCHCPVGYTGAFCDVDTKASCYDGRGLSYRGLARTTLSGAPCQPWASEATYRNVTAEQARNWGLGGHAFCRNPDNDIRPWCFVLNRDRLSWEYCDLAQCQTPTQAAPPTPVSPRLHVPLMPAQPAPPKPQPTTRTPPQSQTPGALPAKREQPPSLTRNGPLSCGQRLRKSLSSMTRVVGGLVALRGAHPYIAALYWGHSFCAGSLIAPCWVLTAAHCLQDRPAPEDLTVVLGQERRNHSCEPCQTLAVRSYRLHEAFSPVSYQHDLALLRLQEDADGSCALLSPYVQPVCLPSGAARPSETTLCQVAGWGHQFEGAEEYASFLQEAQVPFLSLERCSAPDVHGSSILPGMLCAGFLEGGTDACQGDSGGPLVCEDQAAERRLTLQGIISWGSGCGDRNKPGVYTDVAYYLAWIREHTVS", "assay": "Factor XIIa Dose Response Confirmation from Single Well HTS. [Related pubchem assays (depositor defined):AID701]", "format": "functional"}, "Protein RecA": {"biological_target": "T4, Protein RecA (Mycobacterium tuberculosis, UniProt P9WHJ3)", "T4 sequence (P9WHJ3 whole entry)": "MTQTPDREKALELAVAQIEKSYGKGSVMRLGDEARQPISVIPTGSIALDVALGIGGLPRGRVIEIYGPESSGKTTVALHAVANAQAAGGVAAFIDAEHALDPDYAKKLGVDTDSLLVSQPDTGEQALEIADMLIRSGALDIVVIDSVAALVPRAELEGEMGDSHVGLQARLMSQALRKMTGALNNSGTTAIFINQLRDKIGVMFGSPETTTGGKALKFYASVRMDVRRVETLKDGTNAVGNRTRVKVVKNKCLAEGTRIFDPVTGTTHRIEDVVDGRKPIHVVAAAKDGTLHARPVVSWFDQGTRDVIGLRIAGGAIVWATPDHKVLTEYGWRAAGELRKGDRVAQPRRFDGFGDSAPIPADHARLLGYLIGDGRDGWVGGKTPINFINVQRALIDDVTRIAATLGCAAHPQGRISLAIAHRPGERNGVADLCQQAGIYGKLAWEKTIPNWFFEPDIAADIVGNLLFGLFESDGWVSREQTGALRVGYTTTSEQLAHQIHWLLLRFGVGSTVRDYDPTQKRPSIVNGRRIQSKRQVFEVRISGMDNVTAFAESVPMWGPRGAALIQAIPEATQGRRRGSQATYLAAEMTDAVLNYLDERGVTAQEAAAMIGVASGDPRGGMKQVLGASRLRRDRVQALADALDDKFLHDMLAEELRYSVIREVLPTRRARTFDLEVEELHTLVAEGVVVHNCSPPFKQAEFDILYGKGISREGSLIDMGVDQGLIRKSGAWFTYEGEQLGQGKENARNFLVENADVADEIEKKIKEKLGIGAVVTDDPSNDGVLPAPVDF", "assay": "Fluorescence Cell-Free Homogeneous Dose Retest to Identify Inhibitors of RecA-Intein Splicing Activity. [Related pubchem assays (depositor defined):AID2097, AID2223, AID489010, AID492950]", "format": "functional"}, "[5]": {"biological_target": "Sphingosine 1-phosphate receptor 4 (Homo sapiens, UniProt O95977)", "sequence (O95977 whole entry)": "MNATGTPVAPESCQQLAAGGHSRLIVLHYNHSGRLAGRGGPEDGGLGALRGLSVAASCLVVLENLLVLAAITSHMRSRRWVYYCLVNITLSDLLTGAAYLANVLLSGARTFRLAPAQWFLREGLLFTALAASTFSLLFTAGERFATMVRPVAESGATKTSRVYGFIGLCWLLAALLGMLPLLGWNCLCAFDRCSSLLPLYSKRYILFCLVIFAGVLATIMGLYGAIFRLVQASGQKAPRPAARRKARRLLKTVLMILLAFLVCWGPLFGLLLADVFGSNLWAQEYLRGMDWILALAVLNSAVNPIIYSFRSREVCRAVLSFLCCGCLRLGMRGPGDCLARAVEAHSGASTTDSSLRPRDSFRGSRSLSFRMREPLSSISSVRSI", "assay": "Late-stage fluorescence dose response cell-based assay to identify agonists of the Sphingosine 1-Phosphate Receptor 4 (S1P4): purchased compounds EC50. [Related pubchem assays (depositor defined):AID1509, AID1523, AID1563, AID1686, AID1701, AID1801]", "format": "functional"}}, "note": "Activity calls are given as the source filed them."}
{"compound": "O=C(O)CCN1C(=O)/C(=C/c2cccc(OCc3ccc(F)cc3)c2)SC1=S", "values": [{"measurement": "IC50", "setting": "[1]", "value": "1.9 µM (active)"}, {"measurement": "EC50", "setting": "[2]", "value": "3 µM (active)"}, {"measurement": "EC50", "setting": "[3]", "value": "0.243 µM (active)"}]}
{"compound": "O=C(Oc1cccc(-n2cnnn2)c1)c1ccco1", "values": [{"measurement": "AC50", "setting": "[4]", "value": "23.8 µM (active)"}, {"measurement": "IC50", "setting": "Coagulation factor XII", "value": "12.4 µM (active)"}, {"measurement": "EC50", "setting": "Protein RecA", "value": "15.1 µM (active)"}]}
{"compound": "Cc1ccc(OCC(=O)NC(C)c2ccc(Cl)cc2Cl)c([N+](=O)[O-])n1", "note": "(configuration not stated)", "values": [{"measurement": "EC50", "setting": "[5]", "value": "> 50 µM (inactive)"}]}
